Assays:
Experiment in all cases: viability relative to DMSO control (fraction); higher = less drug effect (more viable cells)
Conditions in all cases: 48 h
[1] = tested on: primary ALL patient cells (S048)
Method in brief: (§1)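 Using 384-well plates with compounds already plated at five concentrations, one well per concentration, 4 × 10^4 primary mononuclear tumour cells were added per well. Cells were Ficoll-isolated from blood or bone marrow or came from processed lymph node, fresh or cryopreserved. They were kept for 48 h at 37 °C and 5% CO2 in RPMI-1640 supplemented with penicillin/streptomycin, L-glutamine and human serum, and viability was read as CellTiter-Glo luminescence relative to the median of 16 inner DMSO wells.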

[2] = tested on: primary AML patient cells (S002)
Method in brief: as §1

[3] = tested on: primary AML patient cells (S012)
Method in brief: as §1

[4] = tested on: primary AML patient cells (S017)
Method in brief: as §1

[5] = tested on: primary AML patient cells (S019)
Method in brief: as §1

[6] = tested on: primary AML patient cells (S025)
Method in brief: as §1

[7] = tested on: primary AML patient cells (S037)
Method in brief: as §1

[8] = tested on: primary AML patient cells (S056)
Method in brief: as §1

[9] = tested on: primary AML patient cells (S071)
Method in brief: as §1

[10] = tested on: primary AML patient cells (S072)
Method in brief: as §1

[11] = tested on: primary AML patient cells (S079)
Method in brief: as §1

[12] = tested on: primary AML patient cells (S085)
Method in brief: as §1

[13] = tested on: primary AML patient cells (S089)
Method in brief: as §1

[14] = tested on: primary AML patient cells (S091)
Method in brief: as §1

[15] = tested on: primary BL patient cells (S005)
Method in brief: as §1

[16] = tested on: primary CLL patient cells (S031)
Method in brief: as §1

[17] = tested on: primary CLL patient cells (S043)
Method in brief: as §1

[18] = tested on: primary FL patient cells (S022)
Method in brief: as §1

[19] = tested on: primary MCL patient cells (S053)
Method in brief: as §1

[20] = tested on: primary MCL patient cells (S068)
Method in brief: as §1

Question: For Nc1nc(F)nc2c1ncn2[C@@H]1O[C@H](CO)[C@@H](O)[C@@H]1O [Fludarabine], which viability ([1]; 0.016 µM) is on record?
Answer: Its viability is 0.991.

Question: What about the viability ([1]; 0.08 µM) of the same molecule?
Answer: Its viability is 0.881.

Question: And the viability ([1]; 0.4 µM)?
Answer: Its viability is 0.337.

Question: And the viability ([1]; 2 µM)?
Answer: Its viability is 0.0558.

Question: And the viability ([1]; 10 µM)?
Answer: The viability was 0.028.

Question: And the viability ([2]; 0.016 µM)?
Answer: The viability was 1.27.

Question: And the viability ([2]; 0.08 µM)?
Answer: The viability was 1.07.

Question: What about the viability ([2]; 0.4 µM) of the same molecule?
Answer: The viability was 0.9.

Question: What about the viability ([2]; 2 µM) of the same molecule?
Answer: The viability was 0.457.

Question: What about the viability ([2]; 10 µM) of the same molecule?
Answer: The viability was 0.313.

Question: And the viability ([3]; 0.016 µM)?
Answer: Its viability is 1.02.

Question: What about the viability ([3]; 0.08 µM) of the same molecule?
Answer: Its viability is 0.979.

Question: What about the viability ([3]; 0.4 µM) of the same molecule?
Answer: The viability was 0.987.

Question: And the viability ([3]; 2 µM)?
Answer: The viability was 0.921.

Question: And the viability ([3]; 10 µM)?
Answer: The viability was 0.753.

Question: And the viability ([4]; 0.016 µM)?
Answer: The viability was 1.05.

Question: What about the viability ([4]; 0.08 µM) of the same molecule?
Answer: The viability was 1.03.

Question: What about the viability ([4]; 0.4 µM) of the same molecule?
Answer: Its viability is 1.07.

Question: And the viability ([4]; 2 µM)?
Answer: The viability was 0.854.

Question: And the viability ([4]; 10 µM)?
Answer: The viability was 0.534.

Question: And the viability ([5]; 0.016 µM)?
Answer: The viability was 1.17.

Question: And the viability ([5]; 0.08 µM)?
Answer: Its viability is 0.967.

Question: What about the viability ([5]; 0.4 µM) of the same molecule?
Answer: The viability was 0.605.

Question: What about the viability ([5]; 2 µM) of the same molecule?
Answer: Its viability is 0.301.

Question: And the viability ([5]; 10 µM)?
Answer: The viability was 0.181.

Question: And the viability ([6]; 0.016 µM)?
Answer: The viability was 1.09.

Question: And the viability ([6]; 0.08 µM)?
Answer: The viability was 0.901.

Question: What about the viability ([6]; 0.4 µM) of the same molecule?
Answer: The viability was 0.506.

Question: What about the viability ([6]; 2 µM) of the same molecule?
Answer: Its viability is 0.275.

Question: And the viability ([6]; 10 µM)?
Answer: Its viability is 0.169.

Question: What about the viability ([7]; 0.016 µM) of the same molecule?
Answer: Its viability is 1.25.

Question: What about the viability ([7]; 0.08 µM) of the same molecule?
Answer: The viability was 0.999.

Question: What about the viability ([7]; 0.4 µM) of the same molecule?
Answer: Its viability is 1.18.

Question: What about the viability ([7]; 2 µM) of the same molecule?
Answer: Its viability is 0.643.

Question: What about the viability ([7]; 10 µM) of the same molecule?
Answer: The viability was 0.455.

Question: And the viability ([8]; 0.016 µM)?
Answer: Its viability is 1.3.

Question: And the viability ([8]; 0.08 µM)?
Answer: The viability was 0.88.

Question: What about the viability ([8]; 0.4 µM) of the same molecule?
Answer: The viability was 0.725.

Question: And the viability ([8]; 2 µM)?
Answer: The viability was 0.208.

Question: And the viability ([8]; 10 µM)?
Answer: The viability was 0.0833.

Question: And the viability ([9]; 0.016 µM)?
Answer: Its viability is 0.997.

Question: What about the viability ([9]; 0.08 µM) of the same molecule?
Answer: Its viability is 0.973.

Question: And the viability ([9]; 0.4 µM)?
Answer: The viability was 0.491.

Question: What about the viability ([9]; 2 µM) of the same molecule?
Answer: Its viability is 0.195.

Question: And the viability ([9]; 10 µM)?
Answer: The viability was 0.135.

Question: And the viability ([10]; 0.016 µM)?
Answer: The viability was 1.02.

Question: And the viability ([10]; 0.08 µM)?
Answer: The viability was 1.08.

Question: What about the viability ([10]; 0.4 µM) of the same molecule?
Answer: Its viability is 0.824.

Question: What about the viability ([10]; 2 µM) of the same molecule?
Answer: The viability was 0.724.

Question: And the viability ([10]; 10 µM)?
Answer: The viability was 0.529.

Question: What about the viability ([11]; 0.016 µM) of the same molecule?
Answer: The viability was 1.05.

Question: What about the viability ([11]; 0.08 µM) of the same molecule?
Answer: The viability was 1.01.

Question: What about the viability ([11]; 0.4 µM) of the same molecule?
Answer: Its viability is 0.819.

Question: What about the viability ([11]; 2 µM) of the same molecule?
Answer: Its viability is 0.453.

Question: What about the viability ([11]; 10 µM) of the same molecule?
Answer: Its viability is 0.191.

Question: And the viability ([12]; 0.016 µM)?
Answer: Its viability is 1.02.

Question: And the viability ([12]; 0.08 µM)?
Answer: Its viability is 1.05.

Question: What about the viability ([12]; 0.4 µM) of the same molecule?
Answer: Its viability is 0.561.

Question: What about the viability ([12]; 2 µM) of the same molecule?
Answer: The viability was 0.172.

Question: What about the viability ([12]; 10 µM) of the same molecule?
Answer: The viability was 0.112.

Question: And the viability ([13]; 0.016 µM)?
Answer: Its viability is 0.949.

Question: And the viability ([13]; 0.08 µM)?
Answer: Its viability is 1.18.

Question: And the viability ([13]; 0.4 µM)?
Answer: Its viability is 0.878.

Question: What about the viability ([13]; 2 µM) of the same molecule?
Answer: Its viability is 0.597.

Question: And the viability ([13]; 10 µM)?
Answer: The viability was 0.401.

Question: And the viability ([14]; 0.016 µM)?
Answer: Its viability is 0.958.

Question: What about the viability ([14]; 0.08 µM) of the same molecule?
Answer: The viability was 1.

Question: And the viability ([14]; 0.4 µM)?
Answer: The viability was 0.737.

Question: What about the viability ([14]; 2 µM) of the same molecule?
Answer: Its viability is 0.405.

Question: And the viability ([14]; 10 µM)?
Answer: Its viability is 0.361.

Question: And the viability ([15]; 0.016 µM)?
Answer: Its viability is 0.972.

Question: And the viability ([15]; 0.08 µM)?
Answer: The viability was 1.18.

Question: What about the viability ([15]; 0.4 µM) of the same molecule?
Answer: The viability was 0.943.

Question: And the viability ([15]; 2 µM)?
Answer: The viability was 0.905.

Question: What about the viability ([15]; 10 µM) of the same molecule?
Answer: The viability was 1.05.

Question: And the viability ([16]; 0.016 µM)?
Answer: The viability was 1.05.

Question: And the viability ([16]; 0.08 µM)?
Answer: The viability was 1.02.

Question: What about the viability ([16]; 0.4 µM) of the same molecule?
Answer: Its viability is 0.779.

Question: And the viability ([16]; 2 µM)?
Answer: The viability was 0.276.

Question: What about the viability ([16]; 10 µM) of the same molecule?
Answer: Its viability is 0.0672.

Question: And the viability ([17]; 0.016 µM)?
Answer: Its viability is 1.02.

Question: And the viability ([17]; 0.08 µM)?
Answer: The viability was 0.982.

Question: What about the viability ([17]; 0.4 µM) of the same molecule?
Answer: Its viability is 0.882.

Question: What about the viability ([17]; 2 µM) of the same molecule?
Answer: Its viability is 0.614.

Question: And the viability ([17]; 10 µM)?
Answer: Its viability is 0.236.

Question: What about the viability ([18]; 0.016 µM) of the same molecule?
Answer: The viability was 1.09.

Question: What about the viability ([18]; 0.08 µM) of the same molecule?
Answer: The viability was 1.01.

Question: And the viability ([18]; 0.4 µM)?
Answer: Its viability is 0.916.

Question: And the viability ([18]; 2 µM)?
Answer: The viability was 0.757.

Question: What about the viability ([18]; 10 µM) of the same molecule?
Answer: The viability was 0.504.

Question: And the viability ([19]; 0.016 µM)?
Answer: Its viability is 1.02.

Question: What about the viability ([19]; 0.08 µM) of the same molecule?
Answer: Its viability is 0.928.

Question: And the viability ([19]; 0.4 µM)?
Answer: Its viability is 0.638.

Question: What about the viability ([19]; 2 µM) of the same molecule?
Answer: Its viability is 0.238.

Question: And the viability ([19]; 10 µM)?
Answer: The viability was 0.156.

Question: What about the viability ([20]; 0.016 µM) of the same molecule?
Answer: Its viability is 1.01.

Question: What about the viability ([20]; 0.08 µM) of the same molecule?
Answer: The viability was 0.961.

Question: And the viability ([20]; 0.4 µM)?
Answer: Its viability is 0.804.

Question: What about the viability ([20]; 2 µM) of the same molecule?
Answer: The viability was 0.463.

Question: And the viability ([20]; 10 µM)?
Answer: Its viability is 0.194.
